Experiments:
Mus musculus [1] = experiment: Anxiolytic effect in Albino ICR mouse assessed as time spent on open arms of elevated plus-maze test at 15 mg/ kg, ip; format: functional; conditions: route intraperitoneal
Mus musculus [2] = experiment: Anxiolytic effect in Albino ICR mouse assessed as number of entries in open arms of elevated plus-maze test at 15 mg/kg, ip; format: functional; conditions: route intraperitoneal

Row | SMILES | Activity (Mus musculus [1]) [%] | Activity (Mus musculus [2]) [%]
1 | OC1(Cc2ccc3c(c2)OCO3)c2ccccc2C2=NCCN21 (configuration not stated) | 51.3 | 44.8
2 | COc1cc(CC2(O)c3ccccc3C3=NCCN32)cc(OC)c1OC (configuration not stated) | -7.9 | -16
3 | CSc1ccc(CC2(O)c3ccccc3C3=NCCN32)cc1 (configuration not stated) | 47.8 | 36.3
4 | O=[N+]([O-])c1ccc(CC2(O)c3ccccc3C3=NCCCN32)cc1 (configuration not stated) | 59 | 44.2
5 | O=[N+]([O-])c1ccc(CC2(O)c3ccccc3C3=NCCN32)cc1 (configuration not stated) | 36.1 | 33.1
6 | OC1(Cc2ccc(F)cc2)c2ccccc2C2=NCCCN21 (configuration not stated) | 44.7 | 24.7
7 | OC1(Cc2ccc(Cl)cc2)c2ccccc2C2=NCCN21 (configuration not stated) | 62.6 | 41.9
8 | COc1ccc(CC2(O)c3ccccc3C3=NCCCN32)cc1 (configuration not stated) | 51.8 | 60.2
9 | COc1ccc(CC2(O)c3ccccc3C3=NCCCCN32)cc1 (configuration not stated) | -9 | -24.4
10 | C[S+]([O-])c1ccc(CC2(O)c3ccccc3C3=NCCN32)cc1 (configuration not stated) | 44 | 25.3
11 | COc1ccc(CC2(O)c3ccccc3C3=NCCN32)cc1 (configuration not stated) | 48.9 | 34.6
12 | COc1cc(CC2(O)c3ccccc3C3=NCCCN32)cc(OC)c1OC (configuration not stated) | 44.2 | 46.8
13 | OC1(Cc2ccc3c(c2)OCO3)c2ccccc2C2=NCCCN21 (configuration not stated) | 48.7 | 45.9
14 | CS(=O)(=O)c1ccc(CC2(O)c3ccccc3C3=NCCCN32)cc1 (configuration not stated) | 13.9 | -7.3
15 | OC1(Cc2ccc(F)cc2)c2ccccc2C2=NCCCCN21 (configuration not stated) | 33.5 | 36.3
16 | OC1(Cc2ccc(F)cc2)c2ccccc2C2=NCCN21 (configuration not stated) | 22.9 | 5.5
17 | CSc1ccc(CC2(O)c3ccccc3C3=NCCCN32)cc1 (configuration not stated) | 73.8 | 66
18 | OC1(Cc2ccc(Cl)cc2)c2ccccc2C2=NCCCN21 (configuration not stated) | 62.6 | 47.4
19 | C[S+]([O-])c1ccc(CC2(O)c3ccccc3C3=NCCCN32)cc1 (configuration not stated) | 16.3 | 27.6
20 | OC1(Cc2ccc(Cl)cc2)c2ccccc2C2=NCCCCN21 (configuration not stated) | 42.7 | 41
21 | CS(=O)(=O)c1ccc(CC2(O)c3ccccc3C3=NCCN32)cc1 (configuration not stated) | 44 | 27.3

— ChEMBL document CHEMBL1139991, “[1,3]Diazaheterofused isoindolol derivatives displaying anxiolytic-like effects on mice” (2007)
